Results: ChEMBL document CHEMBL1201862, “PubChem BioAssay data set” (2004)
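Results reflect a 48-hour exposure of cells in 96-well plates to compound at five concentrations. Abbreviation: GI50, concentration required for 50% inhibition of growth.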 Calls of active or inactive are those of the source. No stated cut-off is given here; in the data, active = GI50 up to about 1.1 µM and inactive = higher.

Experiments:
Test in all cases: growth of human tumour cells (NCI), 48 h
[1] = system: PC-3
[2] = system: SK-MEL-5
[3] = system: OVCAR-5
[4] = system: ACHN
[5] = system: MOLT-4
[6] = system: UO-31
[7] = system: U-251
[8] = system: MDA-N
[9] = system: CCRF-CEM
[10] = system: SNB-19
[11] = system: TK-10
[12] = system: HCT-116
[13] = system: UACC-62
[14] = system: SW-620
[15] = system: HOP-62
[16] = system: NCI-H23
[17] = system: Malme-3M
[18] = system: SK-OV-3
[19] = system: RXF 393
[20] = system: BT-549
[21] = system: SF-268
[22] = system: CAKI-1
[23] = system: M14
[24] = system: SF-539
[25] = system: K562
[26] = system: HL-60
[27] = system: 786-0
[28] = system: A498
[29] = system: SR
[30] = system: RPMI-8226
[31] = system: A549
[32] = system: NCI-H460
[33] = system: OVCAR-4
[34] = system: OVCAR-3
[35] = system: KM12
[36] = system: EKVX
[37] = system: HT-29
[38] = system: SK-MEL-28
[39] = system: MDA-MB-231
[40] = system: COLO 205
[41] = system: MDA-MB-435
[42] = system: HCC 2998
[43] = system: SNB-75
[44] = system: NCI-H226
[45] = system: SK-MEL-2
[46] = system: HOP-92
[47] = system: Hs-578T
[48] = system: LOX IMVI
[49] = system: OVCAR-8
[50] = system: NCI-H522
[51] = system: NCI/ADR-RES
[52] = system: T47D
[53] = system: SF-295
[54] = system: HCT-15
[55] = system: DU-145
[56] = system: UACC-257
[57] = system: MCF7
[58] = system: IGROV-1
[59] = system: SN12C

COC(=O)[C@@]12C(=O)C(C)C(=O)[C@]1(C)C(C)=C[C@H]1[C@]3(C=O)CC[C@H](OC(C)=O)C(C)(C)[C@H]3CC[C@@]12C (some centres not stated)
GI50 [1]: > 100 µM (inactive) | GI50 [2]: > 100 µM (inactive) | GI50 [3]: > 100 µM (inactive) | GI50 [4]: > 100 µM (inactive) | GI50 [5]: 11.9 µM (inactive) | GI50 [6]: > 100 µM (inactive) | GI50 [7]: > 100 µM (inactive) | GI50 [8]: > 100 µM (inactive) | GI50 [9]: 4.06 µM (inactive) | GI50 [10]: > 100 µM (inactive) | GI50 [11]: > 100 µM (inactive) | GI50 [12]: > 100 µM (inactive) | GI50 [13]: > 100 µM (inactive) | GI50 [14]: > 100 µM (inactive) | GI50 [15]: > 100 µM (inactive) | GI50 [16]: > 100 µM (inactive) | GI50 [17]: > 100 µM (inactive) | GI50 [18]: > 100 µM (inactive) | GI50 [19]: > 100 µM (inactive) | GI50 [20]: > 100 µM (inactive) | GI50 [21]: > 100 µM (inactive) | GI50 [22]: 93.1 µM (inactive) | GI50 [23]: > 100 µM (inactive) | GI50 [24]: > 100 µM (inactive) | GI50 [25]: 38.6 µM (inactive) | GI50 [26]: 17.7 µM (inactive) | GI50 [27]: > 100 µM (inactive) | GI50 [28]: > 100 µM (inactive) | GI50 [29]: 7.48 µM (inactive) | GI50 [30]: 75.2 µM (inactive) | GI50 [31]: > 100 µM (inactive) | GI50 [32]: > 100 µM (inactive) | GI50 [33]: > 100 µM (inactive) | GI50 [34]: > 100 µM (inactive) | GI50 [35]: > 100 µM (inactive) | GI50 [36]: > 100 µM (inactive) | GI50 [37]: > 100 µM (inactive) | GI50 [38]: > 100 µM (inactive) | GI50 [39]: > 100 µM (inactive) | GI50 [40]: > 100 µM (inactive) | GI50 [41]: 97.3 µM (inactive) | GI50 [42]: > 100 µM (inactive) | GI50 [43]: > 100 µM (inactive) | GI50 [44]: > 100 µM (inactive) | GI50 [45]: > 100 µM (inactive) | GI50 [46]: > 100 µM (inactive) | GI50 [47]: > 100 µM (inactive) | GI50 [48]: 70.6 µM (inactive) | GI50 [49]: > 100 µM (inactive) | GI50 [50]: 51.9 µM (inactive) | GI50 [51]: > 100 µM (inactive) | GI50 [52]: > 100 µM (inactive) | GI50 [53]: > 100 µM (inactive) | GI50 [54]: > 100 µM | GI50 [55]: > 100 µM (inactive) | GI50 [56]: > 100 µM (inactive)

CC1(C)C2CCC1(C)C(NC(=O)CCN1CCOCC1)C2 (configuration not stated)
GI50 [1]: > 100 µM (inactive) | GI50 [2]: > 100 µM (inactive) | GI50 [3]: > 100 µM (inactive) | GI50 [4]: > 100 µM (inactive) | GI50 [5]: > 100 µM (inactive) | GI50 [6]: > 100 µM (inactive) | GI50 [7]: > 100 µM (inactive) | GI50 [57]: > 100 µM (inactive) | GI50 [8]: > 100 µM (inactive) | GI50 [9]: > 100 µM (inactive) | GI50 [10]: > 100 µM (inactive) | GI50 [11]: > 100 µM (inactive) | GI50 [12]: > 100 µM (inactive) | GI50 [13]: > 100 µM (inactive) | GI50 [14]: > 100 µM (inactive) | GI50 [15]: > 100 µM (inactive) | GI50 [16]: > 100 µM (inactive) | GI50 [17]: > 100 µM (inactive) | GI50 [18]: > 100 µM (inactive) | GI50 [19]: > 100 µM (inactive) | GI50 [20]: > 100 µM (inactive) | GI50 [21]: > 100 µM (inactive) | GI50 [22]: > 100 µM (inactive) | GI50 [23]: > 100 µM (inactive) | GI50 [58]: > 100 µM (inactive) | GI50 [24]: > 100 µM (inactive) | GI50 [25]: > 100 µM (inactive) | GI50 [26]: > 100 µM (inactive) | GI50 [27]: > 100 µM (inactive) | GI50 [59]: > 100 µM (inactive) | GI50 [28]: > 100 µM (inactive) | GI50 [29]: > 100 µM (inactive) | GI50 [31]: > 100 µM (inactive) | GI50 [32]: > 100 µM (inactive) | GI50 [33]: > 100 µM (inactive) | GI50 [34]: > 100 µM (inactive) | GI50 [35]: > 100 µM (inactive) | GI50 [36]: > 100 µM (inactive) | GI50 [37]: > 100 µM (inactive) | GI50 [38]: > 100 µM (inactive) | GI50 [39]: > 100 µM (inactive) | GI50 [40]: > 100 µM (inactive) | GI50 [41]: > 100 µM (inactive) | GI50 [42]: > 100 µM (inactive) | GI50 [43]: > 100 µM (inactive) | GI50 [44]: > 100 µM (inactive) | GI50 [46]: > 100 µM (inactive) | GI50 [47]: > 100 µM (inactive) | GI50 [49]: > 100 µM (inactive) | GI50 [50]: > 100 µM (inactive) | GI50 [52]: > 100 µM (inactive) | GI50 [53]: > 100 µM (inactive) | GI50 [55]: > 100 µM (inactive) | GI50 [56]: > 100 µM (inactive)

O=C(NCCCN(CCCCN(CCCNC(=O)c1cc(S(=O)(=O)O)cc(O)c1O)C(=O)c1cc(S(=O)(=O)O)cc(O)c1O)C(=O)c1cc(S(=O)(=O)O)cc(O)c1O)c1cc(S(=O)(=O)O)cc(O)c1O
GI50 [1]: > 100 µM (inactive) | GI50 [2]: > 100 µM (inactive) | GI50 [4]: > 100 µM (inactive) | GI50 [6]: > 100 µM (inactive) | GI50 [7]: > 100 µM (inactive) | GI50 [8]: > 100 µM (inactive) | GI50 [9]: > 100 µM (inactive) | GI50 [10]: > 100 µM (inactive) | GI50 [11]: > 100 µM (inactive) | GI50 [12]: > 100 µM (inactive) | GI50 [13]: > 100 µM (inactive) | GI50 [14]: > 100 µM (inactive) | GI50 [16]: > 100 µM (inactive) | GI50 [17]: > 100 µM (inactive) | GI50 [20]: > 100 µM (inactive) | GI50 [21]: > 100 µM (inactive) | GI50 [22]: > 100 µM (inactive) | GI50 [58]: > 100 µM (inactive) | GI50 [25]: > 100 µM (inactive) | GI50 [26]: 66.1 µM (inactive) | GI50 [27]: > 100 µM (inactive) | GI50 [59]: > 100 µM (inactive) | GI50 [28]: > 100 µM (inactive) | GI50 [29]: 60.4 µM (inactive) | GI50 [31]: > 100 µM (inactive) | GI50 [32]: > 100 µM (inactive) | GI50 [33]: > 100 µM (inactive) | GI50 [35]: > 100 µM (inactive) | GI50 [37]: > 100 µM (inactive) | GI50 [38]: > 100 µM (inactive) | GI50 [39]: > 100 µM (inactive) | GI50 [40]: > 100 µM (inactive) | GI50 [41]: > 100 µM (inactive) | GI50 [42]: > 100 µM (inactive) | GI50 [43]: > 100 µM (inactive) | GI50 [44]: > 100 µM (inactive) | GI50 [45]: > 100 µM (inactive) | GI50 [46]: > 100 µM (inactive) | GI50 [47]: > 100 µM (inactive) | GI50 [48]: 98.4 µM (inactive) | GI50 [49]: > 100 µM (inactive) | GI50 [50]: > 100 µM (inactive) | GI50 [51]: > 100 µM (inactive) | GI50 [52]: > 100 µM (inactive) | GI50 [54]: > 100 µM | GI50 [55]: > 100 µM (inactive) | GI50 [56]: > 100 µM (inactive)
